From patent publication US20250235455A1, “AQUEOUS TICAGRELOR SOLUTIONS, METHOD OF MANUFACTURING AND USES” (HYLORIS DEVELOPMENTS SA, priority 2022, published 2025)
Converted amounts (≈) assume the structure as drawn. Like-named read-outs stand apart in the source and are kept apart here.

How the values were obtained:
[1] = Solubility of ticagrelor in SBECD (appearance on shaking platform); assay type: physicochemical
Method: In a first example two different types of cyclodextrin were used and compared for the solubilization of ticagrelor. An unbuffered stock solution of HPβCD or SBECD was made in water at the target concentrations of 20 w/w %, 25 w/w %, 30 w/w %, 35 w/w % and 40 w/w %. Ticagrelor was added slowly under vortex. Ticagrelor was used at concentrations of 5, 10 or 14 mg/ml in milli Q water. The ticagrelor-cyclodextrin solutions were left on a shaking platform. No sonification or heat was applied.

[2] = Impact of buffer strength on pH, osmolality, assay and impurities; assay type: physicochemical
Method: In addition, a screening was conducted on the impact of buffer strength on pH and osmolality.

[3] = Clear aqueous ticagrelor-cyclodextrin solutions considering 65 mg dose; assay type: physicochemical; settings: using 20-40% w/w HPβCD
[4] = Maximum solubility of ticagrelor in HPβCD solution without heat; assay type: physicochemical; settings: aqueous with cosolvent or surfactant or cyclodextrin, read-out: Ticagrelor mg/ml (maximum solubility)
Description: In a further example, the maximum solubility of ticagrelor in an HPβCD solution, without the use of heat, was investigated.

[5] = Dilution of a concentrated ticagrelor vial; assay type: physicochemical
Description: However, this was not possible with a 0.9 w/v % NaCl solution as diluent for the concentrated ticagrelor solution.

[6] = for Appearance, undiluted: 5 mg/ml; for Appearance in 5% dextrose / Appearance in NaCl 0.9%: diluted to 0.1 mg/ml
[7] = phosphate buffered solution pH 7.4, normal laboratory light and temperature; cited from earlier work
[8] = SBECD 20% w/w, ticagrelor 5 mg/ml
[9] = SBECD 20% w/w, ticagrelor 10 mg/ml
[10] = SBECD 20% w/w, ticagrelor 14 mg/ml
[11] = SBECD 25% w/w, ticagrelor 5 mg/ml
[12] = SBECD 25% w/w, ticagrelor 10 mg/ml
[13] = SBECD 25% w/w, ticagrelor 14 mg/ml
[14] = SBECD 30% w/w, ticagrelor 5 mg/ml
[15] = SBECD 30% w/w, ticagrelor 10 mg/ml
[16] = SBECD 30% w/w, ticagrelor 14 mg/ml
[17] = SBECD 35% w/w, ticagrelor 5 mg/ml
[18] = SBECD 35% w/w, ticagrelor 10 mg/ml
[19] = SBECD 35% w/w, ticagrelor 14 mg/ml
[20] = SBECD 40% w/w, ticagrelor 5 mg/ml
[21] = SBECD 40% w/w, ticagrelor 10 mg/ml
[22] = SBECD 40% w/w, ticagrelor 14 mg/ml
[23] = Phosphate buffer pH 7.5 strength 0.19 mM
[24] = Phosphate buffer pH 7.5 strength 5 mM
[25] = Phosphate buffer pH 7.5 strength 10 mM
[26] = Phosphate buffer pH 7.5 strength 19 mM

SMILES: CCCSc1nc(N[C@@H]2C[C@H]2c2ccc(F)c(F)c2)c2nnn([C@@H]3C[C@H](OCCO)[C@@H](O)[C@H]3O)c2n1 [Ticagrelor, (1S,2S,3R,5S)-3-{7-[(1R,2S)-2-(3,4-difluorophenyl)cyclopropylamino]5-(propylthio)-3H-(1,2,3)triazolo (4,5-D)pyrimidin-3-yl}-5-(2 hydroxyethoxy)cyclopentane-1,2-diol]
- Appearance After 5 min of shaking [1, 8]: − (translucent solution with precipitation)
- Appearance After 30 min of shaking [1, 8]: − (translucent solution with precipitation)
- Appearance After 60 min of shaking [1, 8]: − (translucent solution with precipitation)
- Appearance After 3 h of shaking [1, 8]: − (translucent solution with precipitation)
- Appearance After overnight shaking [1, 8]: − (translucent solution with precipitation)
- Appearance After 5 min of shaking [1, 9]: − (translucent solution with precipitation)
- Appearance After 30 min of shaking [1, 9]: − (translucent solution with precipitation)
- Appearance After 60 min of shaking [1, 9]: − (translucent solution with precipitation)
- Appearance After 3 h of shaking [1, 9]: − (translucent solution with precipitation)
- Appearance After overnight shaking [1, 9]: − (translucent solution with precipitation)
- Appearance After 5 min of shaking [1, 10]: − (translucent solution with precipitation)
- Appearance After 30 min of shaking [1, 10]: − (translucent solution with precipitation)
- Appearance After 60 min of shaking [1, 10]: − (translucent solution with precipitation)
- Appearance After 3 h of shaking [1, 10]: − (translucent solution with precipitation)
- Appearance After overnight shaking [1, 10]: − (translucent solution with precipitation)
- Appearance After 5 min of shaking [1, 11]: − (translucent solution with precipitation)
- Appearance After 30 min of shaking [1, 11]: − (translucent solution with precipitation)
- Appearance After 60 min of shaking [1, 11]: − (translucent solution with precipitation)
- Appearance After 3 h of shaking [1, 11]: − (translucent solution with precipitation)
- Appearance After overnight shaking [1, 11]: − (translucent solution with precipitation)
- Appearance After 5 min of shaking [1, 12]: − (translucent solution with precipitation)
- Appearance After 30 min of shaking [1, 12]: − (translucent solution with precipitation)
- Appearance After 60 min of shaking [1, 12]: − (translucent solution with precipitation)
- Appearance After 3 h of shaking [1, 12]: − (translucent solution with precipitation)
- Appearance After overnight shaking [1, 12]: − (translucent solution with precipitation)
- Appearance After 5 min of shaking [1, 13]: − (translucent solution with precipitation)
- Appearance After 30 min of shaking [1, 13]: − (translucent solution with precipitation)
- Appearance After 60 min of shaking [1, 13]: − (translucent solution with precipitation)
- Appearance After 3 h of shaking [1, 13]: − (translucent solution with precipitation)
- Appearance After overnight shaking [1, 13]: − (translucent solution with precipitation)
- Appearance After 5 min of shaking [1, 14]: − (translucent solution with precipitation)
- Appearance After 30 min of shaking [1, 14]: − (translucent solution with precipitation)
- Appearance After 60 min of shaking [1, 14]: − (translucent solution with precipitation)
- Appearance After 3 h of shaking [1, 14]: − (translucent solution with precipitation)
- Appearance After overnight shaking [1, 14]: − (translucent solution with precipitation)
- Appearance After 5 min of shaking [1, 15]: − (translucent solution with precipitation)
- Appearance After 30 min of shaking [1, 15]: − (translucent solution with precipitation)
- Appearance After 60 min of shaking [1, 15]: − (translucent solution with precipitation)
- Appearance After 3 h of shaking [1, 15]: − (translucent solution with precipitation)
- Appearance After overnight shaking [1, 15]: − (translucent solution with precipitation)
- Appearance After 5 min of shaking [1, 16]: − (translucent solution with precipitation)
- Appearance After 30 min of shaking [1, 16]: − (translucent solution with precipitation)
- Appearance After 60 min of shaking [1, 16]: − (translucent solution with precipitation)
- Appearance After 3 h of shaking [1, 16]: − (translucent solution with precipitation)
- Appearance After overnight shaking [1, 16]: − (translucent solution with precipitation)
- Appearance After 5 min of shaking [1, 17]: − (translucent solution with precipitation)
- Appearance After 30 min of shaking [1, 17]: +/−
- Appearance After 60 min of shaking [1, 17]: +/−
- Appearance After 3 h of shaking [1, 17]: +/−
- Appearance After overnight shaking [1, 17]: − (translucent solution with precipitation)
- Appearance After 5 min of shaking [1, 18]: − (translucent solution with precipitation)
- Appearance After 30 min of shaking [1, 18]: − (translucent solution with precipitation)
- Appearance After 60 min of shaking [1, 18]: − (translucent solution with precipitation)
- Appearance After 3 h of shaking [1, 18]: − (translucent solution with precipitation)
- Appearance After overnight shaking [1, 18]: − (translucent solution with precipitation)
- Appearance After 5 min of shaking [1, 19]: − (translucent solution with precipitation)
- Appearance After 30 min of shaking [1, 19]: − (translucent solution with precipitation)
- Appearance After 60 min of shaking [1, 19]: − (translucent solution with precipitation)
- Appearance After 3 h of shaking [1, 19]: − (translucent solution with precipitation)
- Appearance After overnight shaking [1, 19]: − (translucent solution with precipitation)
- Appearance After 5 min of shaking [1, 20]: − (translucent solution with precipitation)
- Appearance After 30 min of shaking [1, 20]: +/−
- Appearance After 60 min of shaking [1, 20]: +/−
- Appearance After 3 h of shaking [1, 20]: +/−
- Appearance After overnight shaking [1, 20]: + (clear, appeared completely dissolved)
- Appearance After 5 min of shaking [1, 21]: − (translucent solution with precipitation)
- Appearance After 30 min of shaking [1, 21]: − (translucent solution with precipitation)
- Appearance After 60 min of shaking [1, 21]: − (translucent solution with precipitation)
- Appearance After 3 h of shaking [1, 21]: − (translucent solution with precipitation)
- Appearance After overnight shaking [1, 21]: − (translucent solution with precipitation)
- Appearance After 5 min of shaking [1, 22]: − (translucent solution with precipitation)
- Appearance After 30 min of shaking [1, 22]: − (translucent solution with precipitation)
- Appearance After 60 min of shaking [1, 22]: − (translucent solution with precipitation)
- Appearance After 3 h of shaking [1, 22]: − (translucent solution with precipitation)
- Appearance After overnight shaking [1, 22]: − (translucent solution with precipitation)
- Osmolality sample ([2]; Phosphate buffer pH 7.5): 809 mOsm/kg
- Assay [2, 23]: 102.23%
- Total Impurities [2, 23]: 0.42%
- pH sample [2, 23]: 7.18
- Assay [2, 24]: 100.49%
- Osmolality sample [2, 24]: 703 mOsm/kg
- Total Impurities [2, 24]: 0.40%
- pH sample [2, 24]: 7.66
- Assay [2, 25]: 102.98%
- Osmolality sample [2, 25]: 724 mOsm/kg
- Total Impurities [2, 25]: 0.42%
- pH sample [2, 25]: 7.69
- Assay [2, 26]: 102.58%
- Osmolality sample [2, 26]: 758 mOsm/kg
- Total Impurities [2, 26]: 0.42%
- pH sample [2, 26]: 7.70
- Ticagrelor solution concentration achieved [3]: 5 to 13 mg/mL
- solubility ([4]; HPβCD solution 17% w/w, HPβCD 17% w/W): 4 mg/mL (≈ 7.65 mM)
- solubility ([4]; HPβCD solution 22.5% w/w, HPβCD 22.5% w/W): 5 mg/mL (≈ 9.57 mM)
- solubility ([4]; HPβCD solution 30% w/w, HPβCD 30% w/W): 8 mg/mL (≈ 15.3 mM)
- solubility ([4]; HPβCD solution 33% w/w, HPβCD 33% w/W): 9 mg/mL (≈ 17.2 mM)
- solubility ([4]; HPβCD solution 40% w/w, HPβCD 40% w/W): 13 mg/mL (≈ 24.9 mM)
- Clear solution on dilution ([5]; 0.9 w/v % NaCl solution as diluent): not possible
- Appearance after dilution ([5]; 1 vial of 8 ml, 65 mg ticagrelor, about 3 g HPβCD, diluted with 25 ml 5 w/v % dextrose): clear solution
- Appearance, undiluted ([6]; HPβCD 22.5% w/w): Turbid; clear after heating to 40 °C
- Appearance, undiluted ([6]; HPβCD 25.0% w/w): Turbid; clear after heating to 40 °C
- Appearance, undiluted ([6]; HPβCD 27.5% w/w): Turbid; clear after heating to 40 °C
- Appearance, undiluted ([6]; HPβCD 30.0% w/w): Clear solution
- Appearance, undiluted ([6]; HPβCD 32.5% w/w): Clear solution
- Ticagrelor concentration possible to dissolve ([6]; HPβCD 20-40% w/w, without the use of heat): 5 to 15 mg/mL
- Appearance in 5% dextrose ([6]; HPβCD 22.5% w/w): Clear solution
- Appearance in NaCl 0.9% ([6]; HPβCD 22.5% w/w): Turbid
- Appearance in 5% dextrose ([6]; HPβCD 25.0% w/w): Clear solution
- Appearance in NaCl 0.9% ([6]; HPβCD 25.0% w/w): Turbid
- Appearance in 5% dextrose ([6]; HPβCD 27.5% w/w): Clear solution
- Appearance in NaCl 0.9% ([6]; HPβCD 27.5% w/w): Turbid
- Appearance in 5% dextrose ([6]; HPβCD 30.0% w/w): Clear solution
- Appearance in NaCl 0.9% ([6]; HPβCD 30.0% w/w): Turbid
- Appearance in 5% dextrose ([6]; HPβCD 32.5% w/w): Clear solution
- Appearance in NaCl 0.9% ([6]; HPβCD 32.5% w/w): Clear solution
- Stability of undiluted concentrate in the refrigerator ([6]; HPβCD concentration as low as 22.5% w/w): remained stable
- HPβCD required for a clear, storage stable ticagrelor solution ([6]; concentration relevant for injection or intravenous administration): At least 15 % w/w
- Ticagrelor concentration on storage [7]: declined after 1 month
